Source: patent US20230172990A1, “EXTRACELLULAR VESICLE COMPOSITIONS AND THE USE THEREOF IN THE TREATMENT OF SKIN CONDITIONS AND IN IMMUNE MODULATION” (priority 2020, published 2023)

Key:
elderly AT-MSCs [1] = experiment: Intracellular ROS level (H2-DCFDA fluorescence) in AT-MSCs; format: cell-based, human; conditions: 20 μM Eda; for ROS levels in elderly AT-MSCs after 24 hours of culture with agent: 1 mM NAC, 2 μM AA
Method: The expression of ROS in infant- and elderly-derived ATMSCs was evaluated. The intracellular ROS level was measured using 2′,7′-dichlorodihydrofluorescein diacetate (H2-DCFDA, Invitrogen) according to the manufacturer's instructions. Briefly, after reaching 80% confluence, the ATMSCs were washed with PBS and incubated with PBS containing 10 μM H2-DCFDA at 37° C. for 30 minutes. The fluorescence intensity was analyzed by absorbance at 495 nm and 525 nm wavelengths using a photoemission spectrophotometer (Corona Electric, Japan).
(§1) While not wishing to be bound by theory, the oxidative stress and resulting accumulation of ROS are believed to relate to the impaired function of elderly AT-MSCs. The effects of anti-oxidative agents on elderly AT-MSCs were tested and the expression of ROS in elderly AT-MSCs were measured following culture in the presence of 20 μM Edaravone (Eda), 1 mM N-acetylcysteine (NAC), or 2 μM Ascorbic Acid (AA), respectively. […] The concentration of Eda, NAC and AA was maintained in the culture media throughout the culture period. The effects of anti-oxidative agents on cell senescence were also investigated. Cell senescence was assessed by measuring the activity of senescence associated (SA) β-galactosidase following 6 or 12 passages of culture in the presence of 20 μM Eda, 1 mM NAC, or 2 μM AA. […] In FIGS. 3A, 3B and 3C, *=P<0.05, **=P<0.01, and ns=not significant.

[2] = system: streptozotocin-induced diabetic mouse punch biopsy model; experiment: Mouse punch biopsy wound healing model (streptozotocin-induced diabetic mice); format: in vivo; conditions: elderly AT-MSCs cultured 24 hours with 20 μM Eda, 1 mM NAC or 2 μM AA
Method: The effect of the anti-oxidative agents Eda, NAC and AA on the wound healing ability of elderly AT-MSCs was investigated using the mouse punch biopsy model, as described in Dunn et al., J Vis Exp. (75): 50265, 2013). Briefly, 7-week-old male C57BL/6 mice were anesthetized using avertin and shaved. Two wounds were established using 5 mm biopsy punch in the mice upper dorsal area. MSCs (5×10^5 cells/wound) or EVs (4 μg/wound) were injected at 4 points surrounding the punch area. Each mouse had two punched wounds, (1) PBS and (2) cells or EV-treatment. A splint was stitched to the surrounding wound areas and covered with Tegaderm (3M, USA), and the wound sites were observed every day. The images of the wound areas were captured, and the necrotic areas were analyzed using Image J software (NIH, MD).

elderly AT-MSCs [3] = experiment: Cell senescence, senescence associated (SA) β-galactosidase activity; format: cell-based, human; conditions: 6 or 12 passages of culture with 20 μM Eda
Method: as §1

CC(=O)N[C@@H](CS)C(=O)O [NAC, N-acetylcysteine]
ROS levels in elderly AT-MSCs after 24 hours of culture with agent (elderly AT-MSCs [1]): reduced ROS levels
Wound healing ability of elderly AT-MSCs cultured with the agent [2]: no effect

CC1=NN(c2ccccc2)C(=O)C1 [Eda, Edaravone]
ROS levels in elderly AT-MSCs after 24 hours of culture with agent (elderly AT-MSCs [1]): reduced ROS levels
ROS reducing effect in elderly AT-MSCs following 1 cell passage (elderly AT-MSCs [1]; 1 cell passage): ROS reducing effects of Eda were evident
Wound healing ability of elderly AT-MSCs cultured with the agent [2]: significantly improved wound healing
(SA) β-galactosidase activity (cell senescence) (elderly AT-MSCs [3]): reduced (SA) β-galactosidase activity

O=C1O[C@H]([C@@H](O)CO)C(O)=C1O [AA, Ascorbic Acid]
ROS levels in elderly AT-MSCs after 24 hours of culture with agent (elderly AT-MSCs [1]): reduced ROS levels
Wound healing ability of elderly AT-MSCs cultured with the agent [2]: no effect
